Earlier results on two molecules are cited in publication PMC10885983 (Antibiotics, 2024).

Where two headings read alike, the source gives them in different places.

The conditions of data set [1]: rat, in vivo, po, cited from earlier work.
The conditions of data set [2]: cited from earlier work.
On the set-up of data set [3]: method as in PMID 26312207. Conditions: humans; cited from earlier work.

As for `CC(=O)NC[C@H]1CN(c2ccc(N3CCOCC3)c(F)c2)C(=O)O1` [linezolid], the Cmax in data set [1] (50 mg/kg) was 25000 ng/mL. For the same molecule, in data set [1], the half-life was 66 min.
Take `CN[C@H](CC(C)C)C(=O)N[C@H]1C(=O)N[C@@H](CC(N)=O)C(=O)N[C@H]2C(=O)N[C@H]3C(=O)N[C@H](C(=O)N[C@H](C(=O)O)c4cc(O)cc(O)c4-c4cc3ccc4O)[C@H](O)c3ccc(c(Cl)c3)Oc3cc2cc(c3O[C@@H]2O[C@H](CO)[C@@H](O)[C@H](O)[C@H]2O[C@H]2C[C@](C)(N)[C@H](O)[C@H](C)O2)Oc2ccc(cc2Cl)[C@H]1O` [vancomycin]: in data set [2] (intramuscular and intraperitoneal administration), the half-life is 36 min. For the same molecule, the oral bioavailability entry in data set [2] (rats) is “below 0.5%”; in data set [3] it was less than 10%.

A word on the Cmax: it is the peak of the concentration-time curve. The half-life is how long it takes for the measured level to halve.
